The source of these data is US20250304700A1, “ANTI-BLOOD DENDRITIC CELL ANTIGEN 2 ANTIBODIES AND USES THEREOF” (Biogen MA Inc., priority 2012, published 2025).

For one test, the target named is T1, surface human BDCA2 (Homo sapiens, UniProt Q8WTT0).
T1 construct: stably transfected DG44 CHO cells co-expressing full-length BDCA2 and FcεRIγcDNAs (human or cynomolgus monkey); expressed in transfected cells
T1 sequence (Q8WTT0 1-213): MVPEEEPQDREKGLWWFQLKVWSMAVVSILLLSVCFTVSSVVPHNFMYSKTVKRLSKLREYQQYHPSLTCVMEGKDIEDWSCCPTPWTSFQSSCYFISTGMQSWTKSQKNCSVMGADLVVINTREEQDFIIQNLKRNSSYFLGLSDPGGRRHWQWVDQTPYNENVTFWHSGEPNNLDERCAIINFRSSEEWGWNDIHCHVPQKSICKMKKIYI
T1 sequence (P30273 19-86 partner): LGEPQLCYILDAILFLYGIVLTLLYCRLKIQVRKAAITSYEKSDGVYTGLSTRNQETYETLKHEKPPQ
The experiment in a line: Direct binding dilution titration FACS on surface human BDCA2. As to conditions: transfected cells co-expressing BDCA2 and FcεRIγ. The protocol: Expression vectors (ch24F4 heavy chain vectors pYL670 or pYL672 and ch24F4 light chain vector pYL671) were co-transfected into 293-EBNA cells and transfected cells were tested for antibody secretion and specificity (empty vector- and a molecularly cloned irrelevant mAb vector-transfected cells served as controls). […] Direct FACS binding to surface human BDCA2 confirmed the specificity of ch24F4. The EC50 binding of both variants of ch24F4 was equivalent to that of the murine 24F4 mAb by direct binding to surface expressed human BDCA2 by dilution titration FACS assay. Stable CHO cell lines secreting ch24F4-huIgG1, kappa mAb and agly ch24F4-huIgG4/G1 hybrid kappa mAb were produced by co-transfection with pYL672/pYL671 and pYL670/pYL671, respectively.
Site-directed mutagenesis was performed using Agilent's QuikChange II mutagenesis kit following the manufacturer's recommended protocol. The C95S variant was constructed using the mutagenic primer 5′ GCAACCTATTACTGTCAACAAAGTAATGAGGATCCTCGGAC 3′ (SEQ ID NO: 38) and its reverse complement, which introduced a new HincII site, producing plasmid pEAG2678. The C95T variant was constructed using the mutagenic primer 5′ CAACCTATTACTGTCAGCAAACTAATGAAGATCCTCGGACGTTCG 3′ (SEQ ID NO: 39) and its reverse complement, which removed a BamHI site, producing plasmid pEAG2679. […]

The subject of the next test is circulating pDCs. Nature of the test: Circulating pDC frequency after dosing cynomolgus monkeys. It counts as in vivo, cynomolgus monkey. From the text: Nine of these twelve cynomolgus monkeys were divided into 3 groups (3/group), and randomized to include equal representation of BDCA2 density and percent pDC in each group. […] Flow cytometry was used to identify circulating pDCs in the whole blood as CD20-CD14-CD123+HLA-DR+, and the pDC frequency (on log-scale) at each time point was graphed in R software (FIG. 54). A linear mixed effects model was fitted to log (pDC) frequencies using random intercepts for cynomolgus monkeys and fixed effects for dose group and time period: 1 hour, 6 hours, 1-27 days, and greater than 28 days. To assess whether pDC changed among different dose groups at different time periods, a preliminary model also included the interaction terms for dose group and different time periods.
The pDC frequency (on log-scale) at each time point was graphed in R software (FIG. 56). A linear mixed effects model was fitted, using continuous time and time at 1 hour as fixed factors, and cynomolgus monkeys as random intercepts.

Test [1] deals with type I IFN transcription in purified pDCs. The experiment in a line: Q-PCR of type I IFN genes in CpG-A stimulated purified pDCs. As to conditions: 5 μM CPG-A, 18 hours. Type of test: cell-based, human. On the procedure: pDCs were purified using a two-step magnetic bead separation procedure (MACS kit, Miltenyi Biotec). […] Total assay volume was 200 μl/well. Plates were incubated for 18 hours at 37° C., and RNA was extracted from cells using Trizol reagent (Invitrogen corporation) and further purified using an RNeasy mini column (Qiagen Sciences). All primers and probes were purchased from Applied Biosystems Inc. Relative transcript quantities were determined for each sample by comparison to the oligonucleotide standard curve using Sequence Detection Software (Applied Biosystems Inc.) and normalized to a control (GAPDH).

In test [2] the test system is CD62L on the surface of human pDCs. The experiment in a line: CD62L surface expression on pDCs by flow cytometry. It counts as cell-based. As to conditions: whole blood, 1 hour at 37° C., no stimulation. On the procedure:
The MFI of CD62L was determined by gating on pDCs as defined by CD14−, CD20−, HLA-DR+ and CD123+.
Metalloproteinase are known to induce CD62L shedding from the surface of immune cells. […] The surface expression of CD62L was assayed by flow cytometry. GM6001 inhibited the BIIB059-mediated down-modulation CD62L in a dose dependent manner (FIG. 45).
In general terms: Flow cytometry measures light scatter and fluorescence of single cells or particles in a stream.

For “24F4S: hu24F4 H4/L1 with C95S light chain; differs from BIIB059 by 1 amino acid residue”, the “direct binding to surface human BDCA2, in words” value in the test with surface human BDCA2 was ““best” variants”.
For “BIIB059: humanized IgG1 anti-BDCA2 antibody, mature heavy chain SEQ ID NO: 4 and mature light chain SEQ ID NO: 3”, the “effect est., log % circulating pDC” value with circulating pDCs (Group: BIIB059 1 mg/kg IV v. vehicle) is recorded as 0.49; in the test with circulating pDCs (SC 0.2 mg/kg, time (continuous)) it was 0.01; in the test with circulating pDCs (SC 0.2 mg/kg, time: 1 hr v. others), −0.78. Besides, in the test with circulating pDCs (tested doses), the “depletion of pDCs in the blood, in words” value was “does not mediate a sustained depletion of pDCs”. The “transcription of type I IFNs” value in test [1] is “inhibited transcription of all type I IFNs tested”. Also, the “CD62L expression on the surface of pDCs” value in test [2] is listed as “dose-dependent decrease”.
